# System: newborn Swiss mice
# Test: Experiment I: carcinogenicity in newborn mice, benz(a)anthracene vs its K region epoxide (s.c. injection, tumour incidence to 70-75 weeks)
# Source text: Br. J. Cancer (1975) 31, 182 THE CARCINOGENICITY OF POLYCYCLIC HYDROCARBON EPOXIDES IN NEWBORN MICE P. L. GROVER, P. SIMS, B. C. V. MITCHLEY AND F. J. C. ROE From the Chester Beatty Research Institute, Institute of Cancer Research, Royal Cancer Hospital, Fulham Road, London, SW3 6JB Received 9 August 1974. […] THE HYPOTHESIS that the carcino- genicity of polycyclic hydrocarbons is associated with the formation of epoxide metabolites (Grover, Hewer and Sims, 1971, 1972; Keysell et al., 1973) is sup- ported by some experimental evidence but remains unproven. […] The epoxides can also act as alkylating agents (Grover and Sims, 1970) and as mutagens (Ames, Sims and Grover, 1972; Huberman et al., 1971; Cookson, Sims and Grover, 1971; Fahmy and Fahmy, 1973). […] The newborn mouse, which is susceptible to carcinogenic polycyclic hydrocarbons (Roe, Rowson and Salaman, 1961; Roe, Mitchley and Walters, 1963; Walters and Roe, 1964, 1966) can be considered as a convenient source of several types of rapidly dividing cells. Consequently we have tested the K region epoxides derived from phenanthrene, benz(a)anthracene, 7-methylbenz(a)anthracene, dibenz(a,h)- anthracene, chrysene and 3-methylchol- anthrene, together with some of the CARCINOGENICITY OF POLYCYCLIC HYDROCARBON EPOXIDES IN MICE 183 parent hydrocarbons, for carcinogenicity using newborn mice. This paper presents the results that were obtained in these experiments. MATERIALS AND METHODS The polycyclic hydrocarbon epoxides, phenanthrene 9,10-oxide, benz(a)anthracene 5,6-oxide, 7-methylbenz(a)anthracene 5,6- oxide, dibenz(a,h)anthracene 5,6-oxide, chry- sene 5,6-oxide and 3-methylcholanthrene 11,12-oxide were prepared from the parent hydrocarbons (Newman and Blum, 1964; Boyland and Sims, 1965; Sims 1966). Two experiments were undertaken fol- lowing similar protocols. For each experi- ment Swiss mice from a specific pathogen- free colony were time mated so as to produce a large number of litters over the course of 2 or 3 days. […] Test compounds were suspended in poly- ethylene glycol (PEG) 400 and injections of 0-02 ml of the suspension were given by introducing a 25 gauge hypodermic needle through the skin near the root of the tail and threading it subcutaneously to deliver the injected material in the interscapular region. Injections were given to every mouse on the first day or first 3 days of life. The details of treatments and numbers of mice of each sex in each group are shown in Table I (Experiment I) and Table II (Ex- periment II). Surviving mice were weaned when they w ere 21 days old. Thereafter, males and females w ere separated and housed 6 per cage in metal boxes. A mixture of sawdust and wood shavings was used as bedding. The mice were fed on a standard cubed diet (Formulation 86 from C. Holdman and Sons (Plow co Feeds), Byers Lane, South Godstone, Surrey) and water was given ad libitum. Mice were inspected daily, and at weekly intervals they were weighed and palpated for tumours and other lesions. […] The experiment was terminated when surviving mice were between 70 and 75 weeks old. A full routine post- mortem examination, which included disten- sion of the urinary bladder with fixative, was carried out. The number of lesions thought to be neoplasms and the size of the largest such lesion in each organ affected were recorded. All tissues with suspected neoplasms were fixed in Bouin's solution. Haematoxylin and eosin stained 5 µm paraffin wax sections were prepared and examined microscopically. RESULTS The results of the two experiments in terms of tumour incidence are sum- marized in […].
# [1] = females, 50 µg per treatment s.c. on Days 0, 1 and 2
# [2] = females, 50 µg per treatment s.c. on Days 0, 1 and 2 in PEG 400
# [3] = females, 100 µg per treatment s.c. on Days 0, 1 and 2
# [4] = females, 100 µg per treatment s.c. on Days 0, 1 and 2 in PEG 400
# [5] = females, 200 µg per treatment s.c. on Days 0, 1 and 2
# [6] = females, 200 µg per treatment s.c. on Days 0, 1 and 2 in PEG 400
# [7] = males, 50 µg per treatment s.c. on Days 0, 1 and 2
# [8] = males, 50 µg per treatment s.c. on Days 0, 1 and 2 in PEG 400
# [9] = males, 100 µg per treatment s.c. on Days 0, 1 and 2
# [10] = males, 100 µg per treatment s.c. on Days 0, 1 and 2 in PEG 400
# [11] = males, 200 µg per treatment s.c. on Days 0, 1 and 2
# [12] = males, 200 µg per treatment s.c. on Days 0, 1 and 2 in PEG 400
smiles,measurement,setting,value
"c1ccc2c(c1)-c1cc3ccccc3cc1[C@H]1O[C@@H]21 [Benz(a)anthracene 5,6-oxide, benz(a)anthracene 5,6-oxide]",incidence of liver tumours in males,"2 higher levels (Groups D and E, 3 x 200 and 3 x 100 µg)",increase in incidence
same,No. of mice examined at p.m. at termination of experiment (70th-75th week) with liver tumours,[1],0
same,No. of mice examined at p.m. at termination of experiment (70th-75th week) with lung tumours,[1],2
same,No. of mice examined at p.m. at termination of experiment (70th-75th week) with multiple liver tumours,[1],0
same,No. of mice examined at p.m. at termination of experiment (70th-75th week) with multiple lung tumours,[1],0
same,No. of mice examined at p.m. at termination of experiment (70th-75th week) with other tumours,[1],2
same,No. of mice examined at p.m. from 50th-70th week with liver tumours,[1],0
same,No. of mice examined at p.m. from 50th-70th week with lung tumours,[1],0
same,No. of mice examined at p.m. from 50th-70th week with other tumours,[1],1
same,No. of survivors at 50 weeks,[2],18
same,No. of survivors at 70 weeks,[2],16
same,No. of mice examined at p.m. at termination of experiment (70th-75th week) with liver tumours,[3],0
same,No. of mice examined at p.m. at termination of experiment (70th-75th week) with lung tumours,[3],6
same,No. of mice examined at p.m. at termination of experiment (70th-75th week) with multiple liver tumours,[3],0
same,No. of mice examined at p.m. at termination of experiment (70th-75th week) with multiple lung tumours,[3],5
same,No. of mice examined at p.m. at termination of experiment (70th-75th week) with other tumours,[3],1
same,No. of mice examined at p.m. from 50th-70th week with liver tumours,[3],0
same,No. of mice examined at p.m. from 50th-70th week with lung tumours,[3],0
same,No. of mice examined at p.m. from 50th-70th week with other tumours,[3],0
same,No. of survivors at 50 weeks,[4],24
same,No. of survivors at 70 weeks,[4],22
same,No. of mice examined at p.m. at termination of experiment (70th-75th week) with liver tumours,[5],2
same,No. of mice examined at p.m. at termination of experiment (70th-75th week) with lung tumours,[5],1
same,No. of mice examined at p.m. at termination of experiment (70th-75th week) with multiple liver tumours,[5],0
same,No. of mice examined at p.m. at termination of experiment (70th-75th week) with multiple lung tumours,[5],0
same,No. of mice examined at p.m. at termination of experiment (70th-75th week) with other tumours,[5],0
same,No. of mice examined at p.m. from 50th-70th week with liver tumours,[5],0
same,No. of mice examined at p.m. from 50th-70th week with lung tumours,[5],0
same,No. of mice examined at p.m. from 50th-70th week with other tumours,[5],0
same,No. of survivors at 50 weeks,[6],21
same,No. of survivors at 70 weeks,[6],20
same,"incidence of the 2 kinds of tumour (liver, lung) compared with vehicle group","lowest level of dosage, Group F, 3 x 50 µg",not very different from that in Group G
same,No. of mice examined at p.m. at termination of experiment (70th-75th week) with liver tumours,[7],4
same,No. of mice examined at p.m. at termination of experiment (70th-75th week) with lung tumours,[7],5
same,No. of mice examined at p.m. at termination of experiment (70th-75th week) with multiple liver tumours,[7],1
same,No. of mice examined at p.m. at termination of experiment (70th-75th week) with multiple lung tumours,[7],1
same,No. of mice examined at p.m. at termination of experiment (70th-75th week) with other tumours,[7],0
same,No. of mice examined at p.m. from 50th-70th week with liver tumours,[7],0
same,No. of mice examined at p.m. from 50th-70th week with lung tumours,[7],0
same,No. of mice examined at p.m. from 50th-70th week with other tumours,[7],0
same,No. of survivors at 50 weeks,[8],16
same,No. of survivors at 70 weeks,[8],16
same,No. of mice examined at p.m. at termination of experiment (70th-75th week) with liver tumours,[9],12
same,No. of mice examined at p.m. at termination of experiment (70th-75th week) with lung tumours,[9],3
same,No. of mice examined at p.m. at termination of experiment (70th-75th week) with multiple liver tumours,[9],8
same,No. of mice examined at p.m. at termination of experiment (70th-75th week) with multiple lung tumours,[9],0
same,No. of mice examined at p.m. at termination of experiment (70th-75th week) with other tumours,[9],0
same,No. of mice examined at p.m. from 50th-70th week with liver tumours,[9],0
same,No. of mice examined at p.m. from 50th-70th week with lung tumours,[9],1
same,No. of mice examined at p.m. from 50th-70th week with other tumours,[9],0
same,No. of survivors at 50 weeks,[10],27
same,No. of survivors at 70 weeks,[10],26
same,No. of mice examined at p.m. at termination of experiment (70th-75th week) with liver tumours,[11],5
same,No. of mice examined at p.m. at termination of experiment (70th-75th week) with lung tumours,[11],2
same,No. of mice examined at p.m. at termination of experiment (70th-75th week) with multiple liver tumours,[11],4
same,No. of mice examined at p.m. at termination of experiment (70th-75th week) with multiple lung tumours,[11],1
same,No. of mice examined at p.m. at termination of experiment (70th-75th week) with other tumours,[11],2
same,No. of mice examined at p.m. from 50th-70th week with liver tumours,[11],2
same,No. of mice examined at p.m. from 50th-70th week with lung tumours,[11],0
same,No. of mice examined at p.m. from 50th-70th week with other tumours,[11],0
same,No. of survivors at 50 weeks,[12],21
same,No. of survivors at 70 weeks,[12],18
same,activity in increasing liver and lung tumour incidence compared with parent compound,parenteral administration during early neonatal life,less active than its parent compound

# Source: publication PMC2009384, “The carcinogenicity of polycyclic hydrocarbon epoxides in newborn mice” (British Journal of Cancer, 1975)
